Tests used:
Assay type in all cases: functional, cell-based
A2780 [1] = assay: The compound was tested for cytotoxic potency against A2780 human tumor cell lines.
CH1 = assay: The compound was tested for cytotoxic potency against CH1 human tumor cell lines.
A2780 [2] = assay: The compound was tested for cytotoxic potency against A2780R human tumor cell lines.
A2780 [3] = assay: The compound was tested for cytotoxic potency against A2780 human tumor cell lines
SK-OV-3 = assay: The compound was tested for cytotoxic potency against SKOV-3 human tumor cell lines.

Row | Compound | IC50 (A2780 [1]; a2780) | IC50 (CH1; ch1) | IC50 (A2780 [2]; a2780) | IC50 (A2780 [3]) | IC50 (CH1; Homo sapiens, CH1) | IC50 (A2780 [2]; Homo sapiens, A2780) | IC50 (SK-OV-3) | IC50 (A2780 [1]; Homo sapiens, A2780)
1 | CISPLATIN | 0.3 µM | 0.1 µM | 3.3 µM | – | – | – | – | –
2 | N=C(N)c1ccc(-c2ccc(-c3ccc(C(=N)N)cc3)o2)cc1 [FURAMIDINE] | – | – | – | 46 µM | 46.5 µM | 15.5 µM | 42.5 µM | –
3 | N=C(NC1CCC1)c1ccc(-c2ccc(-c3ccc(C(=N)NC4CCC4)cc3)o2)cc1 | – | – | – | – | 4.2 µM | 3.3 µM | 25 µM | 11 µM
4 | CC(C)CNC(=N)c1ccc(-c2ccc(-c3ccc(C(=N)NCC(C)C)cc3)o2)cc1 | – | – | – | – | 9 µM | 12 µM | 52 µM | 22.5 µM
5 | N=C(NCC1CC1)c1ccc(-c2ccc(-c3ccc(C(=N)NCC4CC4)cc3)o2)cc1 | – | – | – | – | 15 µM | 13 µM | 56 µM | 36 µM
6 | CC(C)NC(=N)c1ccc(-c2ccc(-c3ccc(C(=N)NC(C)C)cc3)o2)cc1 | – | – | – | – | 44.5 µM | 6.4 µM | 20.5 µM | 38 µM
7 | N=C(NC1CCCC1)c1ccc(-c2ccc(-c3ccc(C(=N)NC4CCCC4)cc3)o2)cc1 | – | – | – | – | 3.6 µM | 3.8 µM | 17 µM | 12 µM
8 | N=C(NC1CCCCC1)c1ccc(-c2ccc(-c3ccc(C(=N)NC4CCCCC4)cc3)o2)cc1 | – | – | – | – | 2.1 µM | 2.5 µM | 5.2 µM | 4.8 µM
9 | N=C(NC1CC1)c1ccc(-c2ccc(-c3ccc(C(=N)NC4CC4)cc3)o2)cc1 | – | – | – | – | 18 µM | 15.5 µM | 48 µM | 37 µM
10 | CCC(CC)NC(=N)c1ccc(-c2ccc(-c3ccc(C(=N)NC(CC)CC)cc3)o2)cc1 | – | – | – | – | 16 µM | 7.1 µM | 31 µM | 32.5 µM

Source: ChEMBL document CHEMBL1130308, “Cytotoxicity of bis(phenylamidinium)furan alkyl derivatives in human tumour cell lines: Relation to DNA minor groove binding” (Bioorg Med Chem Lett, 1997)
